For 12 compounds, IC50 results are on record in ChEMBL document CHEMBL2177090, “Ceric ammonium nitrate-promoted oxidative coupling reaction for the synthesis and evaluation of a series of anti-tumor amide anhydrovinblastine analogs” (Bioorg Med Chem Lett, 2012).

The subject of the test is HeLa. As to the kind of experiment: Cytotoxicity against human HeLa cells by MTT assay. Type of test: functional, cell-based. (In general: Tetrazolium assays rely on reduction of a dye to a coloured formazan, in cell work by metabolically active cells.)
For orientation: IC50 means the concentration at which inhibition is half-maximal. The low end stands for greater potency in that assay, the high end for weaker potency in that assay. Regarding `CCC1=C[C@H]2CN(CCc3c([nH]c4ccccc34)[C@@](C(=O)OC)(c3cc4c(cc3OC)N(C)[C@H]3[C@@](O)(CCNC(=O)c5cccc(OC)c5)[C@H](OC(C)=O)[C@]5(CC)C=CCN6CC[C@]43[C@@H]65)C2)C1`, the IC50 came out at 0.169 µM.
The compound `CCC1=C[C@H]2CN(CCc3c([nH]c4ccccc34)[C@@](C(=O)OC)(c3cc4c(cc3OC)N(C)[C@H]3[C@@](O)(CCNC(C)=O)[C@H](OC(C)=O)[C@]5(CC)C=CCN6CC[C@]43[C@@H]65)C2)C1` gave an IC50 of 0.057 µM.
For the compound `CCC1=C[C@H]2CN(CCc3c([nH]c4ccccc34)[C@@](C(=O)OC)(c3cc4c(cc3OC)N(C)[C@H]3[C@@](O)(CCNC(=O)c5ccccc5)[C@H](OC(C)=O)[C@]5(CC)C=CCN6CC[C@]43[C@@H]65)C2)C1`, inhibition was half-maximal at 0.107 µM (IC50).
Compound `CCC1=C[C@H]2CN(CCc3c([nH]c4ccccc34)[C@@](C(=O)OC)(c3cc4c(cc3OC)N(C)[C@H]3[C@@](O)(CCNC(=O)c5ccc(C)cc5)[C@H](OC(C)=O)[C@]5(CC)C=CCN6CC[C@]43[C@@H]65)C2)C1` displayed an IC50 of 0.259 µM.
Turning to `CCC1=C[C@H]2CN(CCc3c([nH]c4ccccc34)[C@@](C(=O)OC)(c3cc4c(cc3OC)N(C)[C@H]3[C@@](O)(CCNC(=O)C5CC5)[C@H](OC(C)=O)[C@]5(CC)C=CCN6CC[C@]43[C@@H]65)C2)C1`, the IC50 was 0.142 µM.
`CCC1=C[C@H]2CN(CCc3c([nH]c4ccccc34)[C@@](C(=O)OC)(c3cc4c(cc3OC)N(C)[C@H]3[C@@](O)(CCNC(=O)c5ccccc5OC)[C@H](OC(C)=O)[C@]5(CC)C=CCN6CC[C@]43[C@@H]65)C2)C1`: the IC50 is 0.234 µM.
Compound `CCC1=C[C@H]2CN(CCc3c([nH]c4ccccc34)[C@@](C(=O)OC)(c3cc4c(cc3OC)N(C)[C@H]3[C@@](O)(CCNC(=O)c5ccco5)[C@H](OC(C)=O)[C@]5(CC)C=CCN6CC[C@]43[C@@H]65)C2)C1` gave an IC50 of 0.018 µM.
Consider `CCC(=O)NCC[C@@]1(O)[C@H](OC(C)=O)[C@]2(CC)C=CCN3CC[C@@]4(c5cc([C@@]6(C(=O)OC)C[C@H]7C=C(CC)CN(CCc8c6[nH]c6ccccc86)C7)c(OC)cc5N(C)[C@@H]14)[C@@H]32`, for which inhibition was half-maximal at 0.11 µM (IC50).
Consider `CCC1=C[C@H]2CN(CCc3c([nH]c4ccccc34)[C@@](C(=O)OC)(c3cc4c(cc3OC)N(C)[C@H]3[C@@](O)(CCNC(=O)CC(C)C)[C@H](OC(C)=O)[C@]5(CC)C=CCN6CC[C@]43[C@@H]65)C2)C1`, for which half-maximal inhibition (IC50) required 0.185 µM.
`CCC1=C[C@H]2CN(CCc3c([nH]c4ccccc34)[C@@](C(=O)OC)(c3cc4c(cc3OC)N(C)[C@H]3[C@@](O)(CCNC(=O)c5ccccc5F)[C@H](OC(C)=O)[C@]5(CC)C=CCN6CC[C@]43[C@@H]65)C2)C1` returned an IC50 of 0.247 µM.
Compound `CCC1=C[C@@H]2CN(C1)Cc1c([nH]c3ccccc13)[C@@](C(=O)OC)(c1cc3c(cc1OC)N(C)[C@H]1[C@@](O)(C(=O)OC)[C@H](OC(C)=O)[C@]4(CC)C=CCN5CC[C@]31[C@@H]54)C2` [VINORELBINE] returned an IC50 of 0.027 µM.
Turning to `CCC1=C[C@H]2CN(CCc3c([nH]c4ccccc34)[C@@](C(=O)OC)(c3cc4c(cc3OC)N(C)[C@H]3[C@@](O)(CCNC(=O)C(C)C)[C@H](OC(C)=O)[C@]5(CC)C=CCN6CC[C@]43[C@@H]65)C2)C1`, the IC50 is 0.026 µM.
